Laboratory results taken from patent publication US8246966B2, “Trypanosome microsome system and uses thereof” (priority 2006, dated 2012).

How the values were obtained:
[1] = tested on: T. brucei microsomes (TbRM); assay: Post-translational import of VSG-11786 into TbRM with inhibitors (Example 4); format: biochemical, Trypanosoma brucei
Description: FIGS. 7A to 7C. […] VSG-11786 mRNA was translated in rabbit reticulocyte lysate in the absence or presence of T. brucei cytosol for 1 hour at 37° C., and then cycloheximide was added to stop protein synthesis. TbRM (1 equivalent) and MAL3-101 (10 μM), MAL3-51 (10 μM), or an equal volume of DMSO was added to the samples on ice, and the mixture was incubated at 37° C. for 1.5 hours for translocation of VSG-11786 into the microsomes. Reaction mixtures were treated with proteinase K (PK) for one hour on ice. Proteolysis was terminated with PMSF. Proteins were precipitated with ammonium sulfate, pelleted by centrifugation, resuspended in SDS-PAGE sample buffer, and resolved by Tris-Tricine SDS-PAGE. Gel images were obtained with a phosphorimager and analyzed with Quantity-One software. Reaction mixtures for odd numbered lanes contained TbRM, but not proteinase K; even numbered lanes contained TbRM and proteinase K. Brackets denote lanes that were compared to obtain percentage of VSG-11786 import values. FIG. 7B is a graphical representation of data from FIG. 7A. […] In FIG. 7C, the effect of MAL3-101 on T. brucei growth.
FIGS. 8A to 8D. Effects of NFI028 and CAM741 on import of VSG-11786 into T. brucei microsomes. […] VSG-11786 mRNA was translated in rabbit reticulocyte lysate in the presence of T. brucei cytosol for one hour at 37° C., and then protein synthesis was stopped by the addition of cycloheximide. […] Reaction mixtures were treated with proteinase K (PK) on ice for one hour. Proteolysis was terminated with PMSF. Proteins were precipitated with ammonium sulfate, pelleted, resuspended in SDS-PAGE sample buffer, and resolved by Tris-Tricine SDS-PAGE. Images of radiolabeled proteins were obtained with a phosphorimager and quantitated with Quantity-One software. Samples depicted in odd numbered lanes contained TbRM, but were not treated proteinase K. Reaction mixtures shown in even numbered lanes contained TbRM and were treated with proteinase K. Brackets denote lanes that were compared to each other in order to obtain percentage of VSG-11786 import values. FIG. 8B is a graphical representation of data from FIG. 8A.
FIGS. 9A to 9D. Effects of azide, AEE788, and valinomycin on VSG-11786 import into T. brucei microsomes. […] VSG-11786 mRNA was translated in rabbit reticulocyte lysate in the presence of T. brucei cytosol for one hour at 37° C. Cycloheximide was added to stop proteins synthesis. TbRM (1 equivalent) and sodium azide (8 μM), AEE788 (8 μM), an equal volume of microsome buffer (RMB) or DMSO was added to the samples on ice, and the mixtures were incubated at 37 C for 1.5 hours. Reaction mixtures were treated with proteinase K (PK) on ice for one hour. Proteolysis was terminated with PMSF. Proteins were precipitated with ammonium sulfate, pelleted, resuspended in SDS-PAGE sample buffer, and resolved by Tris-Tricine SDS-PAGE. Images of radiolabeled proteins were obtained with a phosphorimager and quantitated with Quantity-One software. Brackets show lanes that were compared to each other in order to obtain percentage of VSG-11786 imported into TbRM. Lanes 1, 3, 5, & 7 were treated with TbRM, but not proteinase K. Lanes 2, 4, 6, & 8 were treated with TbRM and proteinase K. FIG. 9B is a graphical representation of data from FIG. 9A. […] Reaction mixtures depicted in odd lanes contained TbRM, but were not treated with proteinase K; even lanes contained TbRM and were treated with proteinase K. FIG. 9D is a graphical representation of data from panel FIG. 9C.

bloodstream T. brucei = settings: del Rayo Camacho et al., 2002; read-out: IC50 of drug used to treat human African trypanosomiasis; cited from earlier work
[2] = tested on: Bloodstream T. brucei CA427; assay: Bloodstream T. brucei cell culture drug susceptibility (Example 4); format: cell-based, Trypanosoma brucei; settings: cultured bloodstream T. brucei; read-out: IG50, T. brucei growth
Description: Cell Culture. Bloodstream T. brucei cell culture and drug susceptibility studies were performed as previously described. Bloodstream T. brucei CA427 were cultured in HMI-9 media (Hirumi and Hirumi, 1994, Parasitol Today; 10(2):80-4) to a density of 10^6 cells/ml. Cells were seeded (500 μl of 4×10^4 cells/ml) to a 24-well plate and exposed to MAL3-101, CAM741, and NFI028 at listed concentrations (see figure legends) or an equal volume of DMSO. Cells were incubated at 37° C. and counted after 24 and 48 hours, using a hemocytometer.

With `CCN1CCN(Cc2ccc(-c3cc4c(N[C@H](C)c5ccccc5)ncnc4[nH]3)cc2)CC1` [AEE788] the “inhibition of post-translational import of VSG-11786 into TbRM” value ([1]; AEE788 8 μM) was “failed to inhibit”.

In the case of `N=C(N)c1ccc(OCCCCCOc2ccc(C(=N)N)cc2)cc1` [pentamidine], the IC50 (bloodstream T. brucei) is given as 0.3 nM.

In the case of `Cc1ccc(C(=O)Nc2ccc(S(=O)(=O)O)c3cc(S(=O)(=O)O)cc(S(=O)(=O)O)c23)cc1NC(=O)c1cccc(NC(=O)Nc2cccc(C(=O)Nc3cc(C(=O)Nc4ccc(S(=O)(=O)O)c5cc(S(=O)(=O)O)cc(S(=O)(=O)O)c45)ccc3C)c2)c1` [suramin], the IC50 (bloodstream T. brucei) is given as 1400 to 2300 nM.

In the case of `CC(C)[C@@H]1NC(=O)[C@H](C)OC(=O)[C@@H](C(C)C)NC(=O)[C@@H](C(C)C)OC(=O)[C@H](C(C)C)NC(=O)[C@H](C)OC(=O)[C@@H](C(C)C)NC(=O)[C@@H](C(C)C)OC(=O)[C@H](C(C)C)NC(=O)[C@H](C)OC(=O)[C@@H](C(C)C)NC(=O)[C@@H](C(C)C)OC1=O` [valinomycin], the “efficiency of VSG-11786 import into TbRM” value ([1]; valinomycin 0.5 μM) is reported as “not affected”.

With CAM741 the “VSG-11786 import into TbRM” value ([1]; CAM741 1 μM, DMSO 74%) was 73% and the IC50 [2] was 2000 nM.
